Data published in patent US5120718A, “Candida acid protease inhibiting compounds” (priority 1991, dated 1992).
Structures can show the parent of a compound that is named as a salt. Where a SMILES comes first, the peptide text is derived from it. [ ]: non-standard residue; d: D form. The star is where a group is joined. Sta = CC(C)C[C@H](N)[C@@H](O)CC(=O)O; Isovaleryl = CC(C)CC(=O)*

What was measured:
Candida acid protease = conditions: background art; cited from earlier work
[1] = target: T1, Candida albicans acid protease (Candida albicans, UniProt P0DJ06); assay: In vitro inhibitor assay, microtiter assay with fluorogenic substrate A78331; type: biochemical, Candida albicans ATCC10231
T1 construct: endogenous in cells; host or cells: Candida albicans ATCC10231 (proteinase secreted into the culture medium, purified in house)
T1 sequence (P0DJ06 57-398): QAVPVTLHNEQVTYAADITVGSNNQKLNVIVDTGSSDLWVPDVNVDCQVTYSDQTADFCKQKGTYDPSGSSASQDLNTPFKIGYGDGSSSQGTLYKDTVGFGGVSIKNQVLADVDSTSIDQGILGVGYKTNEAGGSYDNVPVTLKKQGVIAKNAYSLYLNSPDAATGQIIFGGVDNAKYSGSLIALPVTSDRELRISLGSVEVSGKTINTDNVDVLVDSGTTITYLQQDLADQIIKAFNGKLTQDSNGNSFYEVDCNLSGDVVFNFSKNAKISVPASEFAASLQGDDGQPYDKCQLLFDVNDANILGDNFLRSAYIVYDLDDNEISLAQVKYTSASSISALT
Protocol: Isolation and Purification of Candida albican Acid Protease Organism and growth conditions. Candida albicans ATCC10231 was grown overnight in Sabouraud broth (Difco) at 30° C. Cells were centrifuged at 10,000xg for 10 min (4° C.) and the cell pellet washed once with 10 mM phosphate buffered saline (PBS), pH7.0. Washed cells (6×10^6 colony forming units per mL) were grown in yeast nitrogen base without ammonium sulfate or amino acids (Difco), plus 2% glucose and 0.1% casein (nitrogen source) at 37° C.
Proteinase isolation. […] Cells were then harvested at 10,000xg for 20 min (4° C.) and the supernatant filtered through a 0.2μ acetate filter unit (Nalgen). The filtrate was concentrated on an Amicon concentrator (PM30 or YM10 membrane, 75 mm) and 30 mL of the concentrate was loaded onto a Cibacron blue F3GA-6% agarose (Pierce Chem.) column (1.5x44cm) equilibrated with 10 mM sodium citrate, pH 6.5, containing lmM EDTA and 0.02% sodium azide (Ray, T. L., and Payne, C. D. Infection and Immunity 58:508-514, 1990). Bovine serum albumin (BSA) was used as substrate to monitor the column for proteinase activity and to determine total proteolytic units. One BSA proteolytic unit was defined as an optical density (750 nm wavelength) increase of 0.100 under incubation conditions of 37° C. for 60 min (Remold, H., Fasold, H., and Staib, F. Biochimica et Biophysica Acta I67:399-406, 1968). […] Proteinase purity and molecular weight was determined by the Phast-gel (12.5% acrylamide) electrophoresis system (Pharmacia). Protein was determined by the Lowry method (Lowry, O. H., Rosenbrough, N. J., Farr, A. L., and Randall, R. J. Journal of Biological Chemistry 193:263-275, 1951). A fluorogenic substrate, A78331, may also be used to monitor proteinase production and purification. This substrate, DABCYL-Gaba-[…]EDANS (Holzman, T. F., Chung, C. C., Edalji, R., Egan, D. A., Gubbins, E. J., Rueter, A., Howard, G., Yang, L. K., Pederson, T. M., Krafft, G. A., and Wang, G. T. Journal of Protein Chemistry 9:663-672, 1990) contains the fluorescent EDANS group, [5-(2-aminoethyl)-amino]naphthalene-1-sulfonic acid, which is quenched by the DABCYL group, 4-(4-dimethyl-aminophenylazo)benzoic acid, as long as it is part of the molecule (Matayoshi, E. D., Wang, G. T., Krafft, G. A., and Erickson, J. Science 247:954-958, 1990). Proteolysis of this compound by the fungal proteinase releases Thr-EDANS, which when activated at 340 nm fluoresces at 490 nm with the same intensity as equimolar EDANS. Activity is expressed in terms of nmol EDANS released from 32 μM A78331 under incubation conditions of 22° C. for 60 min.
In Vitro Inhibitor Assay Method
Microtiter assay. The assay for inhibitors of C. albicans acid proteinase was done in microtiter trays with the fluorogenic substrate A78331. […] The reaction mixture consisted of 5μL test compound or dimethyl sulfoxide and 45μL of fungal proteinase (0.13 BSA proteolytic units or 0.13 nmol EDANS released) in 50 mM sodium citrate, pH 4.5, which was preincubated at 22° C. for 30 min. The reaction was started with the addition of 50μL fluorogenic substrate in citrate buffer and the incubation was continued at 22° C. for 90 min. The reaction was terminated with 150μL pepstatin (final concentration of 1μM) and 210μL samples were transfered to microfluor plates for fluorescence quantitation in a luminescence spectrophotometer (Perkin-Elmer model LS-50). The excitation wavelength was 340 nm and the emission was monitored at 490 nm (430 nm filter employed). Inhibition was expressed as % change in relative intensity from the dimethyl sulfoxide control group (no inhibitor). IC50's were determined from plots of log dose versus % inhibition from control.

SMILES	potency as inhibitor of Candida acid protease (in words) (Candida acid protease)	specificity (in words) (Candida acid protease)	IC50 [1]
CC(C)CC(=O)N[C@H](C(=O)N[C@H](C(=O)N[C@@H](CC(C)C)[C@@H](O)CC(=O)N[C@@H](C)C(=O)N[C@@H](CC(C)C)[C@@H](O)CC(=O)O)C(C)C)C(C)C [Pepstatin A] (Isovaleryl-VV[Sta]A[Sta]-OH)	not very potent inhibitors of the enzyme	non-specific	–
CC(C)C[C@H](NC(=O)[C@@H](NC(=O)N[C@@H](Cc1ccccc1)C(=O)O)[C@@H]1CCN=C(N)N1)C(=O)N[C@H](C=O)Cc1ccccc1 [chymostatin]	not very potent inhibitors of the enzyme	non-specific	–
CCCC[C@@H](C(=O)N[C@@H](CC1CCCCC1)[C@@H](O)C[C@@H](C(=O)NCCCN1CCOCC1)C(C)C)N1CCN(S(=O)(=O)N2CCN(C)CC2)[C@@H](Cc2ccccc2)C1=O [Example 15, (2S)-2-{(3S)-3-Benzyl-4-N-(4-methylpiperazin-1-yl-sulfonyl)-2-keto-piperazine-1-yl}-hexanoic acid Amide of (2R,4S,5S)-5-Amino-6-cyclohexyl-4hydroxy-2-isopropylhexanoyl N-[3-(N-Morpholinyl)propyl]amide]	–	–	3.8 nM
CCCC[C@@H](C(=O)N[C@@H](CC1CCCCC1)[C@@H](O)C[C@@H](C(=O)NCCN(C)C)C(C)C)N1CCN(C(=O)N2CCN(C)CC2)[C@H](Cc2ccccc2)C1=O [Example 17]	–	–	6.2 nM
CCCCNC(=O)[C@H](C[C@H](O)[C@H](CC1CCCCC1)NC(=O)[C@H](CCCC)N1CCN(S(=O)(=O)N2CCN(C)CC2)[C@@H](Cc2ccccc2)C1=O)C(C)C [Example 13]	–	–	2.7 nM
CCCCNC(=O)[C@H](C[C@H](O)[C@H](CC1CCCCC1)NC(=O)[C@H](CCCC)N1CCN(C(=O)N2CCC(OCOC)CC2)[C@@H](Cc2ccccc2)C1=O)C(C)C [Example 14, 2S-(3S-Benzyl-4-N-(4-methoxymethoxypiperidinyl-carbonyl)-2-keto-piperazin-1-yl)-hexanoic acid Amide of (2R,4,5S) -5-Amino-6-cyclohexyl-4-hydroxy-2-isopropylhexanoyl N-(n-Butyl)amide]	–	–	4.5 nM
CCCCNC(=O)[C@H](C[C@H](O)[C@H](CC1CCCCC1)NC(=O)[C@H](CCCC)N1CCN(C(=O)N2CCN(C)CC2)[C@H](Cc2ccccc2)C1=O)C(C)C [Example 1, (2S)-2-((3R)-3-Benzyl-4-N-(4-methylpiperazin-1-yl-carbonyl)-2-keto-piperazin-1-yl}-hexanoic acid Amide of (2R,4S,5S)-5-amino-6-cyclohexyl-4-hydroxy-2-isopropylhexanoyl N-(n-Butyl)amide Hydrochloride]	–	–	1.3 nM
CCCC[C@@H](C(=O)N[C@@H](CC1CCCCC1)[C@@H](O)C[C@@H](C(=O)NCCCN1CCOCC1)C(C)C)N1CCN(C(=O)N2CCC(OCOC)CC2)[C@@H](Cc2ccccc2)C1=O [Example 16, (2S)-2-{(3S)-3-Benzyl-4-N-(4-methoxymethoxypiperidin-1-yl-carbonyl)-2-keto-piperazin-1-yl}-hexanoic acid Amide of (2R, 4S, 5S)-5-Amino-6-cyclohexyl-4-hydroxy-2-isopropylhexanoyl N-[3-(N-Morpholinyl)propyl]amide]	–	–	5 nM
CCCC[C@@H](C(=O)N[C@@H](CC1CCCCC1)[C@@H](O)C[C@@H](C(=O)NCCCN1CCOCC1)C(C)C)N1CCN(C(=O)N2CCN(C)CC2)[C@@H](Cc2ccccc2)C1=O [Example 12, (2S)-2-{(3S)-3-Benzyl-4-N-(4-methylpiperazin-1-yl-carbonyl)-2-keto-piperazin-1-yl}-hexanoic acid Amide of (2R,4S,5S)-5-Amino-6-cyclohexyl-4-hydroxy-2-isopropylhexanoyl N-3-(N-Morpholinyl)propyllamide]	–	–	3.8 nM
CCCCNC(=O)[C@H](C[C@H](O)[C@H](CC1CCCCC1)NC(=O)[C@H](CCCC)N1C[C@@H](Cc2ccccc2)N(S(=O)(=O)c2ccc(C)cc2)CC1=O)C(C)C [Example 3, (2S)-2-{(3R)-3-Benzyl-4-N-(4-methylbenzene-sulfonyl)-6-keto-piperazin-1-yl}-hexanoic acid Amide of (2R,4S,5S)-5-Amino-6-cyclohexyl-4-hydroxy-2-isopropylhexanoyl N-(n-Butyl)amide]	–	–	30.1 nM
CCCC[C@@H](C(=O)N[C@@H](CC1CCCCC1)[C@@H](O)[C@@H](O)CC(C)C)N1CCN(S(=O)(=O)c2ccc(NC)cc2)[C@H](Cc2ccccc2)C1=O [Example 11, (2S)-2-{(3R)-3-Benzyl-4-N-(4-(methylamino)benzene-sulfonyl)-2-keto-piperazin-1-yl}-hexanoic acid Amide of (2S,3R,4S)-2-Amino-1-cyclohexyl-3,4-dihydroxyl-6-methylheptane]	–	–	85 nM
CCCCNC(=O)[C@H](C[C@H](O)[C@H](CC1CCCCC1)NC(=O)[C@H](CCCC)N1CCN(S(=O)(=O)c2ccc(OC)cc2)[C@H](Cc2ccccc2)C1=O)C(C)C [Example 5, (2S)-2-{(3R)-3-Benzyl-4-N-(4-methoxybenzene-sulfonyl)-2-keto-piperazin-1-yl)-hexanoic acid Amide of (2R,4S,5S)-5-Amino-6-cyclohexyl-4-hydroxy-2-isopropylhexanoyl N-(n-Butyl)amide]	–	–	13.3 nM
CCCC[C@@H](C(=O)N[C@@H](CC1CCCCC1)[C@@H](O)C[C@@H](C(=O)NCCCN(C)C)C(C)C)N1CCN(C(=O)N2CCN(C)CC2)[C@H](Cc2ccccc2)C1=O [Example 18, (2S)-2{(3R)-3-Benzyl-4-N-(4-methylpiperazin-1-yl-carbonyl)-2-keto-piperazin-1-yl}-hexanoic acid Amide of (2R,4S,5S)-5-Amino-6-cyclohexyl-4-hydroxy-2-isopropylhexanoyl N-[3-(Dimethylamino)propyl]amide]	–	–	3.8 nM
